Experimental data published in ChEMBL document CHEMBL4800727 (2021).

Columns and labels:
[1] = biological target: Ephrin type-A receptor 4 (Homo sapiens) (UniProt P54764); assay: EPH receptor A4 Millipore kinase panel; conditions: Compound concentration 10.0 uM
[2] = biological target: Protein kinase C eta type (Homo sapiens) (UniProt P24723); assay: protein kinase C, eta Millipore kinase panel; conditions: Compound concentration 10.0 uM
[3] = biological target: Proto-oncogene tyrosine-protein kinase Src (Homo sapiens) (UniProt P12931); assay: v-src sarcoma viral oncogene homolog Millipore kinase panel; conditions: Compound concentration 10.0 uM
[4] = biological target: Receptor-type tyrosine-protein kinase FLT3 (Homo sapiens) (UniProt P36888); assay: fms-related tyrosine kinase 3 Millipore kinase panel; conditions: Compound concentration 10.0 uM
[5] = biological target: T1, Muscarinic acetylcholine receptor M1 (Homo sapiens) (UniProt P11229); assay: hM1 Cerep panel; conditions: Compound concentration 10.0 uM
T1 sequence (whole entry): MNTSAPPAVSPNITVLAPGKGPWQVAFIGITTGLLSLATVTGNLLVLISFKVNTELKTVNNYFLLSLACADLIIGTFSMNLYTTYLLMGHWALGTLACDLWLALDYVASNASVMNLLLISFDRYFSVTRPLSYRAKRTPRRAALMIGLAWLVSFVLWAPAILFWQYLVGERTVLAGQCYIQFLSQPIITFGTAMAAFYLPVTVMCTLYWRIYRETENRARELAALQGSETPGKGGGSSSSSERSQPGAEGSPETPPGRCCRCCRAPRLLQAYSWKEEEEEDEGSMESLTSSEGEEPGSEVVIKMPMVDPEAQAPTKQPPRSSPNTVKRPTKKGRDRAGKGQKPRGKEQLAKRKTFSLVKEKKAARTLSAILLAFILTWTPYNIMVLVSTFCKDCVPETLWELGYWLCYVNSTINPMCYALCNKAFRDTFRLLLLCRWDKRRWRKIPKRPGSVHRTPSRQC

[6] = biological target: Neuropeptide Y receptor type 2 (Homo sapiens) (UniProt P49146); assay: hNPY2 Cerep panel; conditions: Compound concentration 10.0 uM
[7] = biological target: cGMP-dependent protein kinase 2 (Homo sapiens) (UniProt Q13237); assay: protein kinase, cGMP-dependent, type II Millipore kinase panel; conditions: Compound concentration 10.0 uM
[8] = biological target: cAMP and cAMP-inhibited cGMP 3',5'-cyclic phosphodiesterase 10A (Mus musculus) (UniProt Q8CA95)
[9] = biological target: Mitogen-activated protein kinase kinase kinase kinase 1 (Homo sapiens) (UniProt Q92918); assay: mitogen-activated protein kinase kinase kinase kinase 1 Millipore kinase panel; conditions: Compound concentration 10.0 uM
[10] = biological target: Ephrin type-A receptor 8 (Homo sapiens) (UniProt P29322); assay: EPH receptor A8 Millipore kinase panel; conditions: Compound concentration 10.0 uM
[11] = biological target: Ribosomal protein S6 kinase alpha-5 (Homo sapiens) (UniProt O75582); assay: ribosomal protein S6 kinase, 90kDa, polypeptide 5 Millipore kinase panel; conditions: Compound concentration 10.0 uM
[12] = biological target: T2, Alpha-1B adrenergic receptor (Homo sapiens) (UniProt P35368); assay: hAb1 Cerep panel; conditions: Compound concentration 10.0 uM
T2 sequence (whole entry): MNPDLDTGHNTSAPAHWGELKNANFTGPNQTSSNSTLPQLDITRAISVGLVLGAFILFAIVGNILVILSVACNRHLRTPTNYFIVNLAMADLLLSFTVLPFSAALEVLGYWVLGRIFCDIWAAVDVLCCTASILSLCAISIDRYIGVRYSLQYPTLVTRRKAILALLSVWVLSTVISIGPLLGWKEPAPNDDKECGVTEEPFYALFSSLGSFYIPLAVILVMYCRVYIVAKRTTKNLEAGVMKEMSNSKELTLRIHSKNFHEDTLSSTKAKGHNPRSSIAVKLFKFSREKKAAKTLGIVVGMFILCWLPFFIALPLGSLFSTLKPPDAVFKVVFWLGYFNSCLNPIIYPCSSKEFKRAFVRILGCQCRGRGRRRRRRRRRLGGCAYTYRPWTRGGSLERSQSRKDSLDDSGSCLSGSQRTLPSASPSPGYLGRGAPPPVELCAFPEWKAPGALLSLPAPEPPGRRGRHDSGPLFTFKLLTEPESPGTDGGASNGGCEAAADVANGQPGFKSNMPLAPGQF

[13] = biological target: Adenosine receptor A2a (Homo sapiens) (UniProt P29274); assay: hA2A Cerep panel; conditions: Compound concentration 10.0 uM
[14] = biological target: Tyrosine-protein kinase ITK/TSK (Homo sapiens) (UniProt Q08881); assay: IL2-inducible T-cell kinase Millipore kinase panel; conditions: Compound concentration 10.0 uM
[15] = biological target: Insulin-like growth factor 1 receptor (Homo sapiens) (UniProt P08069); assay: insulin-like growth factor 1 receptor (activated) Millipore kinase panel; conditions: Compound concentration 10.0 uM
[16] = biological target: Serine/threonine-protein kinase NLK (Homo sapiens) (UniProt Q9UBE8); assay: nemo-like kinase Millipore kinase panel; conditions: Compound concentration 10.0 uM
[17] = biological target: Serine/threonine-protein kinase pim-3 (Homo sapiens) (UniProt Q86V86); assay: pim-3 oncogene Millipore kinase panel; conditions: Compound concentration 10.0 uM
[18] = biological target: Mu-type opioid receptor (Homo sapiens) (UniProt P35372); assay: hOP3 Cerep panel; conditions: Compound concentration 10.0 uM
[19] = biological target: Receptor-interacting serine/threonine-protein kinase 2 (Homo sapiens) (UniProt O43353); assay: receptor-interacting serine-threonine kinase 2 Millipore kinase panel; conditions: Compound concentration 10.0 uM
Rattus norvegicus [20] = species: Rattus norvegicus; assay: rBZD Cerep panel; conditions: Compound concentration 10.0 uM
[21] = biological target: Mitogen-activated protein kinase kinase kinase 9 (Homo sapiens) (UniProt P80192); assay: mitogen-activated protein kinase kinase kinase 9 Millipore kinase panel; conditions: Compound concentration 10.0 uM
[22] = biological target: Endothelin-1 receptor (Homo sapiens) (UniProt P25101); assay: hETA Cerep panel; conditions: Compound concentration 10.0 uM
[23] = biological target: Glutamate NMDA receptor (Rattus norvegicus) (UniProt P35439+Q00959+Q00960+Q00961+Q62645+Q8VHN2+Q9R1M7); assay: rPCP Cerep panel; assay type: protein-complex assay; conditions: Compound concentration 10.0 uM
Rattus norvegicus [24] = species: Rattus norvegicus; assay: rK channel Cerep panel; conditions: Compound concentration 10.0 uM
[25] = biological target: Alpha-2A adrenergic receptor (Rattus norvegicus) (UniProt P22909); assay: rAa2 Cerep panel; conditions: Compound concentration 10.0 uM
[26] = biological target: T3, Muscarinic acetylcholine receptor M4 (Homo sapiens) (UniProt P08173); assay: hM4 Cerep panel; conditions: Compound concentration 10.0 uM
T3 sequence (whole entry): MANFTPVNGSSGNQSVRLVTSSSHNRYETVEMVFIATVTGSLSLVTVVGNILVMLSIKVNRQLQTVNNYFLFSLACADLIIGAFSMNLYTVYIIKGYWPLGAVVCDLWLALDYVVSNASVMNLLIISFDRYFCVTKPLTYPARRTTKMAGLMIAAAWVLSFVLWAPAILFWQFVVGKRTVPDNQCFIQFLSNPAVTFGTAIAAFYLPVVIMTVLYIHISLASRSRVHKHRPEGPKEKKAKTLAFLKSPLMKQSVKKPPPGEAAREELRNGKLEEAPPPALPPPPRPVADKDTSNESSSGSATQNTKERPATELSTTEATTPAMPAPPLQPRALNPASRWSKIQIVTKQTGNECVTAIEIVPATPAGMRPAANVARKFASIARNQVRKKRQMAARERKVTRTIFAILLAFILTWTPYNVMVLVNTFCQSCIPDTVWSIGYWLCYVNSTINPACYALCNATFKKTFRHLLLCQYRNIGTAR

[27] = biological target: Tyrosine-protein kinase Fer (Homo sapiens) (UniProt P16591); assay: fer (fps/fes related) tyrosine kinase Millipore kinase panel; conditions: Compound concentration 10.0 uM
[28] = biological target: mTOR/FKBP12A/FKBP12B (Homo sapiens) (UniProt P62942+P68106+P42345); assay: mechanistic target of rapamycin / FKBP12 Millipore kinase panel; assay type: protein-complex assay; conditions: Compound concentration 10.0 uM
[29] = biological target: Vascular endothelial growth factor receptor 1 (Homo sapiens) (UniProt P17948); assay: fms-related tyrosine kinase 1 Millipore kinase panel; conditions: Compound concentration 10.0 uM

Chain of Receptor-interacting serine/threonine-protein kinase 2 (Homo sapiens) (O43353 whole entry): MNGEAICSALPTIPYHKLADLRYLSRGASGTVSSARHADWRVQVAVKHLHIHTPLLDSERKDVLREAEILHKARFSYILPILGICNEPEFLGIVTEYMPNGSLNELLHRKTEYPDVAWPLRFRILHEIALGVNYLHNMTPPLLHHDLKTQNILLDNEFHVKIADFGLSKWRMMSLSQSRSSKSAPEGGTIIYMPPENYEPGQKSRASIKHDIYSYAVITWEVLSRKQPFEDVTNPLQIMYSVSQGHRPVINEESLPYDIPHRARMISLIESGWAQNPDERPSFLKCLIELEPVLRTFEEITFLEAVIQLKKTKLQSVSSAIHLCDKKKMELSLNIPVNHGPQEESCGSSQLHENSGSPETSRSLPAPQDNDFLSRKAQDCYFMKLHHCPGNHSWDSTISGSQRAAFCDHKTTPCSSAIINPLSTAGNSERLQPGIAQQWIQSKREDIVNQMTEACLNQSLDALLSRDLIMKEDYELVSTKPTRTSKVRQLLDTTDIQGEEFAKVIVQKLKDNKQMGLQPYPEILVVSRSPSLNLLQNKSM
Chain of Receptor-type tyrosine-protein kinase FLT3 (Homo sapiens) (P36888 whole entry): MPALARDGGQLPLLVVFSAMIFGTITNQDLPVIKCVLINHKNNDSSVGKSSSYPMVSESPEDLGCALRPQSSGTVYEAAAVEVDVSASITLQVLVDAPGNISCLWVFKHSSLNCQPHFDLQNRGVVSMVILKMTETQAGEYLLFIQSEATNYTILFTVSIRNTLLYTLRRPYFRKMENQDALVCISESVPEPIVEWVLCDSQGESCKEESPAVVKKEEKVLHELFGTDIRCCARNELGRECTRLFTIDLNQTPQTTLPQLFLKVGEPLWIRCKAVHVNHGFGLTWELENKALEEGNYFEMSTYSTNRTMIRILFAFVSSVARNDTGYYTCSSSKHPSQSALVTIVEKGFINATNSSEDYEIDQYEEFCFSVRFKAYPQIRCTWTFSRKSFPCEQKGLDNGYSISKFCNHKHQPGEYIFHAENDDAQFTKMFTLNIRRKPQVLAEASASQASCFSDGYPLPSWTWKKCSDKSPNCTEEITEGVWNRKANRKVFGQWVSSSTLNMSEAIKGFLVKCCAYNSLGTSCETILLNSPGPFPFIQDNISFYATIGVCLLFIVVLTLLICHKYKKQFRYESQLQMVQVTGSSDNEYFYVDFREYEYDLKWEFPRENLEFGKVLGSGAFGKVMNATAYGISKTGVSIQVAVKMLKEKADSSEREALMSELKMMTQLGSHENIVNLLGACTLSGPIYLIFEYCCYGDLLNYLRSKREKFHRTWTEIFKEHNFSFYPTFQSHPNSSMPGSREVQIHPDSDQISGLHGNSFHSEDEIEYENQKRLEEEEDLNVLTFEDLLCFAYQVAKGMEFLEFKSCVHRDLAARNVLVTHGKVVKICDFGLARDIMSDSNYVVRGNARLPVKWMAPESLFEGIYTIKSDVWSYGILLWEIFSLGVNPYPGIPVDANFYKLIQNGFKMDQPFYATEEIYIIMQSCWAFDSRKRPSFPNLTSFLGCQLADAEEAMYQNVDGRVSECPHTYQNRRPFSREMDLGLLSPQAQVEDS
Chain of mTOR/FKBP12A/FKBP12B (Homo sapiens) (P62942 2-108 limits assumed, other chains not shown): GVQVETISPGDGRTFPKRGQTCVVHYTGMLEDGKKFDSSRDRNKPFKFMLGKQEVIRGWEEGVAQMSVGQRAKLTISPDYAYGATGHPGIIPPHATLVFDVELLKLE
Chain of mTOR/FKBP12A/FKBP12B (Homo sapiens) (P68106 whole entry partner, other chains not shown): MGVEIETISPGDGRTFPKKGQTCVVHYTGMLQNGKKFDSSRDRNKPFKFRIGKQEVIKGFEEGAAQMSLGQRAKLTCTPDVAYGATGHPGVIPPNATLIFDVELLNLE
Chain of cGMP-dependent protein kinase 2 (Homo sapiens) (Q13237 whole entry): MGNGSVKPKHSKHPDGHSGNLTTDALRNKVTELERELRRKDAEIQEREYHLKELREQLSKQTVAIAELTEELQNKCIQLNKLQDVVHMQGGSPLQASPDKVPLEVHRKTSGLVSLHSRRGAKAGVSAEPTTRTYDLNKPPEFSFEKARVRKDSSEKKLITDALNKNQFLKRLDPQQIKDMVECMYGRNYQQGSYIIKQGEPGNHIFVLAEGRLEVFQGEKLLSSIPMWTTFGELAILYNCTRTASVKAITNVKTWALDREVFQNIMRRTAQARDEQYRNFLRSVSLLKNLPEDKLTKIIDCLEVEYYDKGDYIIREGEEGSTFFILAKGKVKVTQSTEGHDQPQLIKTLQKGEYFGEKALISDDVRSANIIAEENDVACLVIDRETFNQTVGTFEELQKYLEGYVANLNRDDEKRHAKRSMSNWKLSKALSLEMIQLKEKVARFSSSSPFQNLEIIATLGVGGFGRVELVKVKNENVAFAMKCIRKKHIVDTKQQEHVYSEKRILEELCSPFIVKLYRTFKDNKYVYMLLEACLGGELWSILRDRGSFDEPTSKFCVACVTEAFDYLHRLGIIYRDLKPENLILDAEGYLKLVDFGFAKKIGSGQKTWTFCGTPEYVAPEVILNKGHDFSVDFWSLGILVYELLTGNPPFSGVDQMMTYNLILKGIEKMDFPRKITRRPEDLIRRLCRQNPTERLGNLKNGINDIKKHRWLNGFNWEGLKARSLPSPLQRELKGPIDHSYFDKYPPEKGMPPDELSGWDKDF
Chain of Tyrosine-protein kinase ITK/TSK (Homo sapiens) (Q08881 whole entry): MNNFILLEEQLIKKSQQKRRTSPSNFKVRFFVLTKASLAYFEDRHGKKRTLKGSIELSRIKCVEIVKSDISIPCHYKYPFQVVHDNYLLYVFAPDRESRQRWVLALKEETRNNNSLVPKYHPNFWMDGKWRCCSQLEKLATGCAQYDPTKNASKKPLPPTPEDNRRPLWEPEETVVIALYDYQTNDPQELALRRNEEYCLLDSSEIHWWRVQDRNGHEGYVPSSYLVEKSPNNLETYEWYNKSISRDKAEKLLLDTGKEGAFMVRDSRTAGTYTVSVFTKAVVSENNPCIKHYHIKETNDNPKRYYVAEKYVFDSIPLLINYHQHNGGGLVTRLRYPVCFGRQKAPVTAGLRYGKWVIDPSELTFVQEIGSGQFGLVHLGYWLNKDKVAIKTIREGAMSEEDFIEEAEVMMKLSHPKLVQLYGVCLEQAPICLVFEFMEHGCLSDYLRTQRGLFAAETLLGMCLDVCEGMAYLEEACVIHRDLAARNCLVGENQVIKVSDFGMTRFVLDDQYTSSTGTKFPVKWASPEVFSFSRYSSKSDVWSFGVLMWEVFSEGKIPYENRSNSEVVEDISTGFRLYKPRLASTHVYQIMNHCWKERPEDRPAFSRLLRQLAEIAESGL
Chain of Ephrin type-A receptor 4 (Homo sapiens) (P54764 whole entry): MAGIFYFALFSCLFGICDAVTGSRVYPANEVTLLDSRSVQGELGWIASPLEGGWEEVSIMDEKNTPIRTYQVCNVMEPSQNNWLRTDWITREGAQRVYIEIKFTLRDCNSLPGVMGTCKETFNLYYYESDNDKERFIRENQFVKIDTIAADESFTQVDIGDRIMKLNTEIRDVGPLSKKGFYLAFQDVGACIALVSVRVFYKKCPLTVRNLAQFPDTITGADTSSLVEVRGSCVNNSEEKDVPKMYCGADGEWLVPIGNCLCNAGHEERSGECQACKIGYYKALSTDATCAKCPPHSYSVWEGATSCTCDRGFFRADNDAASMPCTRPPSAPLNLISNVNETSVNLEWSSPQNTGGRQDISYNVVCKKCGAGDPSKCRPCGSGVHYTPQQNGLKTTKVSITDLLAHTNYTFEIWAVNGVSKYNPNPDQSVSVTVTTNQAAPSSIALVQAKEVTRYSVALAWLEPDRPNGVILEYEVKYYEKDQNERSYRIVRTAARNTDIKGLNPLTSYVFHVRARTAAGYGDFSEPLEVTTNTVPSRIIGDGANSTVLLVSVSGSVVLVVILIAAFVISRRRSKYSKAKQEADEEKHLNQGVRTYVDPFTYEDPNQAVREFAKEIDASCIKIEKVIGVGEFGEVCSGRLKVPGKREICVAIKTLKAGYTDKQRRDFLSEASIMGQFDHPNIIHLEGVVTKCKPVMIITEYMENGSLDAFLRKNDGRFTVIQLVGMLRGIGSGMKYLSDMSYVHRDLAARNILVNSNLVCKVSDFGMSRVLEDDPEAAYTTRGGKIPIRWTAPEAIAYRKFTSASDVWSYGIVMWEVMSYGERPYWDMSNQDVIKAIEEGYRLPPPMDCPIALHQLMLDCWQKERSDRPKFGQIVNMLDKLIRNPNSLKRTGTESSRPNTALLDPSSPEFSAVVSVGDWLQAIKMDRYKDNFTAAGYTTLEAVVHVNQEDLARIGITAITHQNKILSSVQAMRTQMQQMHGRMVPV
Chain of Adenosine receptor A2a (Homo sapiens) (P29274 whole entry): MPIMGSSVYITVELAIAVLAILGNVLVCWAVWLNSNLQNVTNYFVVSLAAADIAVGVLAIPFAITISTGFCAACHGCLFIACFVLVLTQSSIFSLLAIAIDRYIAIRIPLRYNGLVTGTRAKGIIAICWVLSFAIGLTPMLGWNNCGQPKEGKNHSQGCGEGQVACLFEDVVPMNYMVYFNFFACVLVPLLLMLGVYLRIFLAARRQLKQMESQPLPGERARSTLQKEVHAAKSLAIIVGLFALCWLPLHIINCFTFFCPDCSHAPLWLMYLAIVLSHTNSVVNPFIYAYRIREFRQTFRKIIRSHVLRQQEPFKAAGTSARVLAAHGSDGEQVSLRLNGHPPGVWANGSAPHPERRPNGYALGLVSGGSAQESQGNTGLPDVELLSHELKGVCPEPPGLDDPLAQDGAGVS
Chain of Endothelin-1 receptor (Homo sapiens) (P25101 whole entry): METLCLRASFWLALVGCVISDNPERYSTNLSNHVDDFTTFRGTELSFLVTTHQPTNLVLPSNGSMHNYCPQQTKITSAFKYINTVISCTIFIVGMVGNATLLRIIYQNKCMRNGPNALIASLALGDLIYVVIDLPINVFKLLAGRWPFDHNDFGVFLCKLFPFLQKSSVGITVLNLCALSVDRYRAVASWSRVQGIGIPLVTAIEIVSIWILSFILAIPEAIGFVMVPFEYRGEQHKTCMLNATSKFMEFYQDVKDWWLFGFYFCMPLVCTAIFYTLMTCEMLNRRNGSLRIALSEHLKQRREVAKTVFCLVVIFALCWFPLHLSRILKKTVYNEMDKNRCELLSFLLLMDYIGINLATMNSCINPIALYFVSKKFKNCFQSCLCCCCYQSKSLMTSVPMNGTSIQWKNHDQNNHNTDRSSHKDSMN

COCCc1ccc(-c2c(C)nc3c(N4CCOCC4)ccnn23)cn1 [JNJ-42396302]
inhibition [1]: 2% | inhibition [2]: -2% | inhibition [3]: -5% | inhibition [4]: 6% | effect [5]: 2.2% | effect [6]: 4.45% | inhibition [7]: 1% | Increase in cAMP [8]: 10 fold | inhibition [9]: 5.53% | inhibition [10]: 0% | inhibition [11]: 3% | effect [12]: 6.55% | effect [13]: 17.8% | inhibition [14]: 1% | inhibition [15]: 3% | inhibition [16]: 2% | inhibition [17]: 11% | effect [18]: 2.15% | inhibition [19]: -6% | effect (Rattus norvegicus [20]): 41.5% | inhibition [21]: 5% | effect [22]: 5.55% | effect [23]: -3.5% | effect (Rattus norvegicus [24]): -9.45% | effect [25]: 5.2% | effect [26]: -3.05% | inhibition [27]: 0% | inhibition [28]: 9% | inhibition [29]: -5%
